One data set deals with T1, α-Syn oligomers (Homo sapiens, UniProt P37840).
T1 construct: made in house; host or cells: Escherichia coli BL21
The data set can be described thus: Binding affinity to α-Syn oligomers by curcumin analog fluorescence. The following applies: for Kd: compound fluorescence, read-out: dissociation constant (Kd) for α-Syn oligomers; for affinity to oligomers compared to fibrils: comparison of Kd for fibrils and oligomers. How it is done: Immediately after incubation, fluorescence study was performed (for the excitation and emission ranges for each compounds, see Fig. S1). Experiments were performed using FluoroMax-4 spectrofluorometer (HORIBA JobinYvon) with excitation and emission slit widths of 5 nm.
The data were analyzed in Graphpad Prism software according to established method as used previously.

Data set [1] can be described thus: Stability of curcumin analogs by time-dependent intrinsic fluorescence. The following applies: 20 mM MES buffer pH 6.0, 0.01% NaN3, 37 °C. In kind it is physicochemical. How it is done: 1μl of this DMSO-stock solution was transferred to 2 ml microfuge tube and 1 ml of 20 mM MES buffer (pH 6.0, 0.01% NaN3) was added to it and mixed immediately by vortexing. These solutions were incubated at 37 °C and their respective fluorescence was taken at certain time intervals. The fluorescence was monitored by placing the 200 μl of the incubated solution in 0.1 cm path-length quartz cuvette (Hellma, Forest Hills, NY) and the spectra were acquired by using FluoroMax-4 spectrofluorometer (HORIBA JobinYvon) instrument with excitation and emission slit widths of 5 nm and 10 nm respectively. The fluorescence intensity maxima for each sample were plotted against time of incubation and fitted in exponential decay 1 in the Origin 8.0 software according to manufacture’s protocol (Fig. 2A).

In data set [2] the target is T2, preformed α-Syn fibrils (Homo sapiens, UniProt P37840).
T2 construct: made in house; host or cells: Escherichia coli BL21
The data set can be described thus: LDH cytotoxicity assay of preformed α-Syn fibrils incubated with curcumin analogs. In kind it is cell-based. Conditions: fibrils incubated with analog 48 h; SH-SY5Y cells. How it is done:
The concentration of the fibrils was determined by subtraction of supernatant concentration from the original concentration of α-Syn kept for fibrillation.
The percent LDH release was plotted as difference in the absorbance value of 490 nm and 690 nm, considering 100% release for the TritonX-100 treated cells.

In data set [3] the target is T2, preformed α-Syn fibrils. The data set can be described thus: Nile red binding assay on preformed α-Syn fibrils. The following applies: fibrils incubated with analog 48 h. In kind it is biochemical. How it is done:
Stock solution of NR was prepared in DMSO (1 mM). […] Similar experimental protocol was used for NR binding to oligomers. FluoroMax-4 spectrofluorometer (HORIBA JobinYvon) was used with excitation and emission slit widths of 5 nm. The maximum NR fluorescence obtained at ~630 nm was used for plotting bar diagrams.

Data set [4] concerns the target T3, α-Syn (Homo sapiens, UniProt P37840).
T3 construct: made in house; host or cells: Escherichia coli BL21
The data set is described as follows: α-Syn aggregation kinetics by compound fluorescence. Conditions: in presence of analog. In kind it is biochemical. How it is done: ThT fluorescence was used to monitor the aggregation kinetics of α-Syn only as a control.
(§1) Subsequently, we examined the effect of these analogs on α-Syn oligomerization by time dependent static light scattering experiment. […] After aggregation, TEM study was done to determine the effects of these analogs on the morphology of the resultant aggregates.
The α-Syn amyloid aggregation was started with LMW α-Syn of concentration ~300 μM in 1.5 ml microfuge tube in 20 mM MES buffer, pH 6.0, with 0.01% NaN3. […] The microfuge tubes with protein solutions were placed into Echo-Therm model RT11 vertical rotor (Torrey Pines Scientific, USA) with a speed of 50 rpm, at 37 °C inside an incubator.
The experiments were performed in FluoroMax-4 spectrofluorometer (HORIBA JobinYvon) with excitation and emission slit widths of 5 nm. Fluorescence was done in 20 mM MES buffer (pH 6.0, 0.01% NaN3).

In data set [5] the target is T3, α-Syn. The data set is described as follows: TEM of α-Syn aggregates formed in presence of analogs. In kind it is biochemical. How it is done: as §1
(§2) The samples were then washed thrice with autoclaved MQ. The samples were then stained with 10 μl of uranyl formate 1% (w/v) and incubated in dark for 10 min. The EM image of each sample was acquired at 120 kV with magnifications in the range of 26,000X and 43,000X using a transmission electron microscope (TECNAI12 D312 FEI, Netherlands).

For the next data set, the target named is T4, α-Syn fibrils (Homo sapiens, UniProt P37840).
T4 construct: made in house; host or cells: Escherichia coli BL21
The data set is described as follows: Binding affinity to α-Syn fibrils by curcumin analog fluorescence. Conditions: for binding with preformed α-Syn fibrils: compound fluorescence. How it is done:
To estimate the comparative binding affinity of curcumin analogs to the α-Syn fibrils and oligomers, curcumin fluorescence assay was performed for each analog. For binding study with fibrils, 10 μM of α-Syn fibrils were incubated in presence of varying concentration of curcumin and its analogs (0.25 μM to 30 μM) for 30 min at RT in dark and then fluorescence spectra were recorded. The normalized fluorescence intensity of different concentrations of curcumin/analogs at their corresponding λmax was plotted to obtain their respective saturation plots (Figs 6A and S7). From the saturation plot, dissociation constant (Kd) was calculated (see method section).
The binding of curcumin/analogs to α-Syn fibrils were determined based on change in fluorescence intensity. For this study, 10 μM α-Syn fibrils were incubated in presence and absence of varying concentration of curcumin/analogs (0.25 μM to 30 μM) for 30 min at RT in dark. Immediately after incubation, fluorescence study was performed (for the excitation and emission ranges for each compounds, see Fig. S1). Experiments were performed using FluoroMax-4 spectrofluorometer (HORIBA JobinYvon) with excitation and emission slit widths of 5 nm. The maximum fluorescence intensity for curcumin/analogs was normalized with respect to that of the lowest concentration of each analog. The normalized fluorescence intensity was plotted against increasing concentration of curcumin/analogs and the dissociation constant was determined using the equation
where, “ΔF” is the change in the fluorescence intensity of curcumin/analogs, “ΔFmax” is the change in the fluorescence intensity at saturation point and “L”is the concentration of curcumin/analogs. The data were analyzed in Graphpad Prism software according to established method as used previously. Similarly, the dissociation constant of curcumin and its analogs with preformed α-Syn oligomers and monomers (obtained from SEC) were also determined.

Data set [6] has as its target T5, preformed α-Syn amyloid fibrils (Homo sapiens, UniProt P37840).
T5 construct: made in house; host or cells: Escherichia coli BL21
The data set is described as follows: TEM of preformed α-Syn fibrils with analogs. In kind it is biochemical. Conditions: after 48 h incubation with analog. The protocol:
as §2

This is an account of results in article PMC4919791, “Effect of curcumin analogs onα-synuclein aggregation and cytotoxicity” (Scientific Reports, 2016).

As usually defined, the Kd is the equilibrium constant for the complex coming apart. For the compound `COc1ccc(/C=C/C(=O)CC(=O)/C=C/c2ccc(OC)cc2OC)c(OC)c1` [C4], the Kd on α-Syn oligomers is 16.5 ± 2.63 µM.
Regarding `COc1ccc(OC)c(/C=C/C(=O)CC(=O)/C=C/c2cc(OC)ccc2OC)c1` [C5], the “relative stability compared with curcumin (slope of normalized fluorescence versus time)” value in data set [1] was “relatively more stable than curcumin”. The “effect on cell death by preformed α-Syn fibrils, LDH” value (“effect on cell death” below) on preformed α-Syn fibrils [2] is “decrease in cell death”. For the same compound, the “Nile red fluorescence of preformed α-Syn fibrils (exposed hydrophobic surface)” value on preformed α-Syn fibrils [3] is listed as “less NR fluorescence for fibrils as compared to curcumin”. The “effect on rate/kinetics of α-Syn aggregation” value (shortened to “effect on rate/kinetics”) on α-Syn [4] was “increases the rate of α-Syn aggregation”. Moreover, the “morphology of α-Syn aggregates formed in presence of analog (TEM)” value (shortened to “morphology of α-Syn aggregates formed”) on α-Syn [5] was “fibrils with shorter length”.
Regarding `O=C(/C=C/c1ccccc1)CC(=O)/C=C/c1ccccc1` [C7], the “relative stability compared with curcumin (slope of normalized fluorescence versus time)” value in data set [1] is “relatively more stable than curcumin”. On α-Syn fibrils (10 μM fibrils, 0.25–30 μM analog, 30 min RT, read-out: dissociation constant (Kd) for α-Syn fibrils), the Kd is 13.2 ± 2.29 µM. In addition, the “binding with preformed α-Syn fibrils” value at α-Syn fibrils is given as “very weak binding”. Further, the “effect on cell death” value at preformed α-Syn fibrils [2] is on record as “decrease in cell death”. Also, the “fibril morphology/thickness of preformed α-Syn fibrils (TEM, words)” value (from here on “fibril morphology/thickness”) in data set [6] was “thinner fibrils”. Further, at α-Syn [5], the “average fibril thickness of fibrils formed in presence of analog” value is reported as “more in comparison to fibrils formed in presence of other analogs” and the “morphology of α-Syn aggregates formed” value is recorded as “fibrils with shorter length”.
Turning to `O=C(/C=C/c1cccs1)CC(=O)/C=C/c1cccs1` [C8], the “relative stability compared with curcumin (slope of normalized fluorescence versus time)” value in data set [1] was “relatively more stable than curcumin”. At α-Syn oligomers, the “affinity to oligomers compared to fibrils” value is recorded as “higher binding affinity to oligomers as compared to fibrils” and the Kd is 1.46 ± 0.2 µM. For the same compound, at preformed α-Syn fibrils [2], the “effect on cell death” value is listed as “decrease in cell death”. Also, the “fibril morphology/thickness” value in data set [6] is “thinner fibrils”. The “effect on rate/kinetics” value on α-Syn [4] is listed as “less significant effect”.
As for `O=C(/C=C/c1cccnc1)CC(=O)/C=C/c1cccnc1` [C9], in data set [1], the “relative stability compared with curcumin (slope of normalized fluorescence versus time)” value is on record as “relatively more stable than curcumin”. In addition, the “binding with preformed α-Syn fibrils” value on α-Syn fibrils is “did not show any significant binding”. Besides, the “fibril morphology/thickness” value in data set [6] is listed as “thinner fibrils”. On α-Syn [4], the “effect on rate/kinetics” value is “less significant effect”. Further, at α-Syn [5], the “morphology of α-Syn aggregates formed” value is “fibrils with shorter length”.
As to `COc1ccc(/C=C/C(=O)CC(=O)/C=C/c2ccc(OC)cc2)cc1` [C10], the “relative stability compared with curcumin (slope of normalized fluorescence versus time)” value in data set [1] is listed as “relatively more stable than curcumin”. The “affinity to oligomers compared to fibrils” value at α-Syn oligomers is “higher binding affinity to oligomers as compared to fibrils”. The “effect on cell death” value on preformed α-Syn fibrils [2] is “decrease in cell death”. The “morphology of α-Syn aggregates formed” value on α-Syn [5] was “fibrils with shorter length”.
